Reference: patent US20240268372A1, “Methods and Compositions for Extending Organ and Tissue Preservation” (The General Hospital Corporation, priority 2021, published 2024)
Values joined by “and” are separate entries in the source; they are usually repeats but may differ in a detail not shown here. Equal entries are not always repeated.

Key:
whole rat livers [1] = assay: Optimized partial freezing of whole rat livers: ex vivo simulated transplantation (normothermic reperfusion with whole blood)
Method: (§1) Within this standardized protocol, we first compared GLY, EG, and PG as main permeating CPA using a freezing temperature of −10° C. and storage duration of 1 day (FIG. 37). Using PG as the CPA, we subsequently tested the effect of freezing temperature (−10° C. vs −15° C.) and storage duration (1 day vs 5 days) on liver viability after partial freezing using the same protocol (FIG. 38).
The Affinity Pixie Oxygenator is a clinical grade oxygenator that has graduated fiber bundle density technology and radial flow path that is designed to create a more uniform blood flow, enhance gas transfer, reduce pressure drops, and decrease prime volume. Moreover, it also contains a Balance® Biosurface that contains a hydrophilic polymer coating to reduce platelet adhesion and activation. This adaptation to the oxygenator is essential since recirculating whole blood during simulated transplantation may trigger coagulation and inflammatory events that are not representative of in vivo events and could skew observed outcomes.
(§2) Machine perfusion system: The perfusion system provides a continuous perfusion through the portal vein that is pressure, flow, and temperature controlled. The perfusates can be either recirculated or flushed with a single pass though the liver and perfusates can be changed without interrupting perfusion. The setup and operation of the perfusion system is described in detail elsewhere (see, e.g., ref. 15). There were two oxygenators used in this study, including the Radnoti (Cat #130144) and Affinity Pixie Oxygenator (Cat #BBP241). Due to the flexibility and low cost of the Radnoti oxygenator, it was first used for initial optimization and characterization studies, including determining the effect of permeating CPAs (GLY vs EG vs PG; FIG. 37), temperature (−10 vs −15° C., FIG. 38) storage duration (1 vs 5 days, FIG. 38), and warm ischemic injury.
Preconditioning during SNMP: Directly after procurement the livers were perfused with 250 ml of SNMP preloading solution (see Table 7 for composition of all solutions). The perfusion temperature was set at 21° C. and perfusion was initiated at 5 ml/min. […] Next, the livers were perfused for 30 additional minutes to allow for cellular uptake of 3-O-methyl-D-glucose (3-OMG).
Preloading of CPAs during HMP: The SNMP preloading solution was gradually switched to HMP preloading solution in […] increments, each with 10% decreasing and 10% increasing volumetric fractions of SNMP and HMP preloading solution, respectively. During this switch, the perfusion temperature was lowered to 4° C., and flows were adjusted to a maximum perfusion pressure of 3 mmHg. Dependent on the flowrate, the solution switch took 10-15 minutes. The HMP preloading was continued for 30 additional minutes to ensure complete equilibration of the solution throughout the peripheral liver tissue.
This was done in 10 fractions of 10 ml, each with 10% decreasing and 10% increasing volumetric fractions of HMP preloading solution and storage solution, respectively. During this switch, the perfusion temperature was maintained at 4° C., and the flowrates were lowered to ensure a maximum perfusion pressure of 3 mmHg. The final 15 ml fraction of 100% storage solution was loaded at a fixed flowrate of 0.5 ml/min.
Partial freezing: After loading of the storage solution, the liver was placed in a bag with 50 ml fresh storage solution and suspended in a pre-cooled chiller (Engel, Schwertberg, Austria). Depending on the experimental condition the chiller temperature was pre-cooled to −10° C. or −15° C. and the liver stored for […] 5 days.

whole rat livers [2] = assay: Optimized partial freezing of whole rat livers: SNMP recovery after freezing; settings: −15° C., 5 days; at 3 h
Method: as §1
as §2, with “injury. Once the major aspects of the protocol were optimized and characterized, we used the clinical grade Affinity Pixie Oxygenator. […]” for “injury.”

[3] = −10° C., 1 day, at 2 h of simulated transplantation
[4] = clinical grade oxygenator, −15° C., 1 day
[5] = clinical grade oxygenator, −15° C., 1 day, at 2 h
[6] = clinical grade oxygenator, −15° C., 5 day
[7] = clinical grade oxygenator, −15° C., 5 day, at 2 h

## OCCO [EG, ethylene glycol]
Whole rat livers [1]; −10° C., 1 day
  bile production during simulated transplantation: did not produce bile
  lactate clearance after first hour of simulated transplantation: not observed
  microscopic tissue structure (H&E, blinded pathologist): favorable to modest results
Whole rat livers [1]; −10° C., 1 day, at 2 h
  oxygen uptake during simulated transplantation: 21.4 ± 5.8 µL O2/min/g
  tissue adenylate energy charge: 0.088±0.065
  weight gain during simulated transplantation: 2.50±5.26%
Whole rat livers [1]; [3]
  AST levels: 967±330 U/L
  portal lactate concentration: 6.68 ± 1.71 mM

## CC(O)CO (stereo not shown) [PG, propylene glycol]
Whole rat livers [2]
  weight gain during SNMP recovery after freezing: 40.00±4.32%
Whole rat livers [1]; 30 minutes warm ischemia prior to freezing at −10° C. for 1 day, at 2 h of simulated transplantation
  lactate: 6.37 ± 1.09 mM
Whole rat livers [1]; clinical grade oxygenator, 1 day frozen vs Clinical Oxy. Controls
  HSP70 in perfusate: increase
Whole rat livers [1]; clinical grade oxygenator, across all groups
  TNFα levels in perfusate: no changes
Whole rat livers [1]; clinical grade oxygenator, frozen livers versus controls
  8OHdG in perfusate: significantly lower
Whole rat livers [1]; [4]
  maximum ALT: 722.00±155.74 U/L
  maximum AST: 958.67±278.50 U/L
  potassium level at end of simulated transplantation: 5.23 ± 0.252 mM
Whole rat livers [1]; [5]
  bile production: 0.67 ± 0.92 µL/g
  liver weight gain during simulated transplantation: 12.00±8.66%
  vascular resistance: 0.004±0.002 mmHg*min*mL-i*g^−1
Whole rat livers [1]; [6]
  maximum ALT: 886.67±241.80 U/L
  maximum AST: 1190.33±117.35 U/L
  potassium level at end of simulated transplantation: 5.167 ± 0.404 mM
Whole rat livers [1]; [7]
  bile production: 2.92 ± 3.74 µL/g
  vascular resistance: 0.007±0.010 mmHg*min*mL-i*g^−1
Whole rat livers [1]; clinical grade oxygenator, −15° C., 5 days
  tissue adenylate energy charge: 0.131±0.031
Whole rat livers [1]; clinical grade oxygenator, −15° C., 5 days, at 2 h
  liver weight gain during simulated transplantation: 26.00±15.13%
Whole rat livers [1]; −10° C. and −15° C., 1 day
  microscopic tissue structure: some disruption of the lobular architecture with intact portal triads and hepatocyte swelling
Whole rat livers [1]; −10° C., 1 day
  bile production during simulated transplantation: did produce bile
  lactate clearance after first hour of simulated transplantation: cleared lactate
  microscopic tissue structure (H&E, blinded pathologist): favorable to modest results
Whole rat livers [1]; −10° C., 1 day, at 1 h
  AST levels: 567±172 U/L
  oxygen uptake during simulated transplantation: 36.9 ± 2.34 µL O2/min/g
Whole rat livers [1]; −10° C., 1 day, at 2 h
  oxygen uptake during simulated transplantation: 38.2 ± 3.66 µL O2/min/g
  vascular resistance during simulated transplantation: 0.019±0.011 mmHg*min*mL^−1*g^−1
  weight gain during simulated transplantation: 4.00±9.20%
Whole rat livers [1]; [3]
  AST levels: 979±520 U/L and 979±521 U/L
  portal lactate concentration: 2.95 ± 1.73 mM
  total cumulative bile volume: 3.56 ± 4.02 µL/g
Whole rat livers [1]; −15° C., 1 and 5 days
  lactate clearance during simulated transplantation: no lactate clearance was observed
Whole rat livers [1]; −15° C., 1 day
  bile production during simulated transplantation: 6.11 ± 4.69 µL/g
  tissue adenylate energy charge: 0.061±0.019
Whole rat livers [1]; −15° C., 1 day, at 1 h
  AST levels: 1283±224 U/L
  oxygen uptake during simulated transplantation: 23.5 ± 4.68 µL O2/min/g
Whole rat livers [1]; −15° C., 1 day, at 2 h
  AST levels: 1995±530 U/L
  lactate level at end of simulated transplantation: 5.21 ± 2.67 mM
  maximum ALT: 2335±597 U/L
  maximum potassium: 5.05 ± 0.48 mM
  oxygen uptake during simulated transplantation: 24.9 ± 2.38 µL O2/min/g
  vascular resistance during simulated transplantation: 0.021±0.010 mmHg*min*mL^−1*g^−1 and 0.011±0.004 mmHg*min*mL^−1*g^−1
Whole rat livers [1]; −15° C., 5 days
  bile production during simulated transplantation: 3.32 ± 2.43 µL/g
  microscopic tissue structure: moderate to marked loss of LSECs
  tissue adenylate energy charge: 0.062±0.029
Whole rat livers [1]; −15° C., 5 days, at 2 h
  lactate level at end of simulated transplantation: 5.73 ± 1.29 mM
  maximum ALT: 2316±242 U/L
  maximum potassium: 4.95 ± 0.48 mM
  oxygen uptake during simulated transplantation: 25.4 ± 9.78 µL O2/min/g
  vascular resistance during simulated transplantation: 0.021±0.021 mmHg*min*mL^−1*g^−1
  weight gain during simulated transplantation: 30.25±5.56%
